This passage reports EC50 and IC50 results from patent publication US10344026B2, “Compositions and methods of targeting mutant K-ras” (NANTBIO, INC., priority 2017, dated 2019).

What all share (assay type): cell-based
The test system of test [1] is phospho-ERK in Panc1 (G12D). Description: In-Cell Western phospho-ERK, Panc1. To be noted: Homo sapiens, PANC-1, 1 h; Panc1, one hour treatment; read-out: In-Cell Western Panc1 (G12D) Erk (P). The method, boiled down: (§1)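 3000 cells/well, 18 hr pre-incubation; 1 hr compound exposure, 0.5% DMSO final. Formaldehyde fix, Triton permeabilization, primary Ab overnight 4° C, secondary 2 hr. Fluorescence imaging; EC50.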

Test [2] concerns phospho-Akt in HCC827 (Wild-type). Description: In-Cell Western phospho-Akt, HCC827. Particulars: Homo sapiens, 1 h; HCC827, one hour treatment; read-out: In-Cell Western HCC827 (Wild-type) Akt (P). How it is done:
In-cell phosphorylation assays for Erk and Akt were performed on several of the compounds and exemplary results are shown in Table 3 below using HCC827 and A375 cell lines for wild type K-Ras and Panc1 and Panc10.05 cell lines for G12D K-Ras mutants. Results are expressed in μM and corresponding structures are shown in FIGS. 2A-2G and Examples 1-152, above.
Cells are seeded in complete medium into black sided, clear-bottom 384-well microplates at 3000 cells/[…]/well. Plates are returned to 37° C. CO2 incubator for 18 hr. Drug is made as 200× in DMSO and diluted into medium to 10×. To each well is added 4 ul 10× test article or controls, and plates are returned to the incubator. Final assay DMSO concentration is 0.5%. After one hour, cells are fixed in formaldehyde, rinsed & permeabilized with triton X-100, and blocked with BSA/Goat serum blocking solution. Primary phospho-Akt and phospho-ERK antibodies are added and plates are incubated overnight at 4° C. Plates are rinsed with Tween-20 wash buffer and secondary antibody (Goat anti-rabbit, Thermofisher) is added. After 2 hours, plates are rinsed in Tween-20 wash buffer, and then PBS. Plates are imaged on the Celigo (Nexcelom) and cellular fluorescence is quantitated. Full inhibition of phospho-Akt is achieved with 1 uM BEZ235 (Sellekchem), while full inhibition of phospho-ERK is achieved with 1 uM MEK Inhibitor II Calbiochem). EC50 values are calculated using Graphpad Prism.

Another test deals with T1, wild type K-Ras (Homo sapiens, UniProt P01116).
T1 construct: expressed in transfected cells; host or cells: 293H cells
T1 sequence (P01116 whole entry): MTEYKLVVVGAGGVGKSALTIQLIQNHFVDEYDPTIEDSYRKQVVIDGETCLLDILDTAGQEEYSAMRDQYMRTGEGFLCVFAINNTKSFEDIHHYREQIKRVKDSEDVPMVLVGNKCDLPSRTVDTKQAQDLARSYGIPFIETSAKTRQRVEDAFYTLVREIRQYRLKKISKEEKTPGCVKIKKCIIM
Description: G-LISA Ras activation, 293H cells transfected with Ras wild-type, EGF stimulated. To be noted: compound 1 hour, then 100 ng/ml EGF 2 minutes. The method, boiled down: (§2)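 G-LISA Ras-GTP readout; 293H transfectants treated 1 h with 3.125-25 μM compound, EGF pulse (100 ng/ml, 2 min) for wild-type only.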

The subject of the next test is HCT116-G31D. In words: Viability assay (CellTiterBlue, 72 hr) HCT116. To be noted: Homo sapiens, HCT-116, GI50, CellTiterBlue, HCT116 K-Ras G13D, read-out: 72 hr Cell Viability HCT116 (G13D). The gist of the method: (§3)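 Each line was plated at 1000 cells per well and incubated for 72 hr with compound after an 18 hr settling period. CellTiterBlue fluorescence measured the result, and GI50 was fitted relative to DMSO and tamoxifen controls.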

The next test addresses T2, K-Ras G12D (Homo sapiens, UniProt P01116, G12D).
T2 construct: expressed in transfected cells; host or cells: 293H cells
In words: G-LISA Ras activation, 293H cells transfected with G12D mutant. To be noted: compound 1 hour. The method, boiled down: as §2

Test [3] concerns phospho-Akt in Panc10.05 (G12D). In words: In-Cell Western phospho-Akt, Panc10.05. To be noted: Homo sapiens, Panc1005, 1 h; Panc10.05, one hour treatment; read-out: In-Cell Western Panc10.05 (G12D) Akt (P). The gist of the method:
as §1

In test [4] the test system is phospho-Akt in Panc1 (G12D). Description: In-Cell Western phospho-Akt, Panc1. Particulars: Homo sapiens, PANC-1, 1 h; Panc1, one hour treatment; read-out: In-Cell Western Panc1 (G12D) Akt (P). The gist of the method: as §1
Another test relates to Panc10.05-G12D. Description: Viability assay (CellTiterBlue, 72 hr) Panc10.05. Particulars: Homo sapiens, Panc1005, GI50, CellTiterBlue, Panc10.05 K-Ras G12D, read-out: 72 hr Cell Viability Panc10.05 (G12D). The method, boiled down: as §3
In general terms: The colour change of resazurin is a common sign of viable cells or microbes.

Test [5] has as its system Ishikawa (K-Ras wild type cell line). In words: Viability assay (CellTiterBlue, 72 hr) Ishikawa. Particulars: Homo sapiens, GI50, CellTiterBlue, Ishikawa K-Ras wild-type. The method, boiled down: as §3
The test system of test [6] is phospho-ERK in HCC827 (Wild-type). Description: In-Cell Western phospho-ERK, HCC827. To be noted: Homo sapiens, 1 h; HCC827, one hour treatment; read-out: In-Cell Western HCC827 (Wild-type) Erk (P). The gist of the method:
as §1

Test [7] concerns HCC827 (K-Ras wild type cell line). In words: Viability assay (CellTiterBlue, 72 hr) HCC827. To be noted: Homo sapiens, GI50, CellTiterBlue, HCC827 K-Ras wild-type. The gist of the method:
as §3

The test system of another test is Panc1-G12D. In words: Viability assay (CellTiterBlue, 72 hr) Panc1. Particulars: Homo sapiens, PANC-1, GI50, CellTiterBlue, Panc1 K-Ras G12D, read-out: 72 hr Cell Viability Panc1 (G12D). The gist of the method:
as §3

The subject of test [8] is phospho-ERK in Panc10.05 (G12D). Description: In-Cell Western phospho-ERK, Panc10.05. Particulars: Homo sapiens, Panc1005, 1 h; Panc10.05, one hour treatment; read-out: In-Cell Western Panc10.05 (G12D) Erk (P). The gist of the method: as §1
Test [9] has as its system U87-MG (K-Ras wild type cell line). Description: Viability assay (CellTiterBlue, 72 hr) U87-MG. To be noted: Homo sapiens, U-87 MG, GI50, CellTiterBlue, U87-MG K-Ras wild-type. The method, boiled down: as §3

T2 sequence (P01116 whole entry G12D): as the sequence (P01116 whole entry) above, with G12D counted along it

Regarding `Cc1nc(C)c(C(=O)Nc2nc(-c3ccc4c(c3)CCC(=O)N4CC3CC3)cs2)o1` [Compound 68, N-(4-(1-(cyclopropylmethyl)-2-oxo-1,2,3,4-tetrahydroquinolin-6-yl)thiazol-2-yl)-2,4-dimethyloxazole-5-carboxamide], the EC50 stood at 5 µM in [1]; 13 µM in [2]; 23 µM in test [3]; 4 µM in test [4]; 6 µM in test [6]; 7 µM in test [8]. For the same molecule, the IC50 on wild type K-Ras turned out to be 16.7 µM; in the test with HCT116-G31D it was 5 µM; on K-Ras G12D, 10.3 µM; with Panc10.05-G12D, 3 µM; in test [5] it was 3 µM; in test [7] it was 5 µM. For the same molecule, the IC50 in the test on Panc1-G12D amounted to 8 µM.
Take `Cc1nn(C)c(C)c1C(=O)Nc1nc(-c2ccc3c(c2)CCC(=O)N3)cs1` [Compound 40, 1,3,5-trimethyl-N-(4-(2-oxo-1,2,3,4-tetrahydroquinolin-6-yl)thiazol-2-yl)-1H-pyrazole-4-carboxamide]: the EC50 is 8 µM in test [1], 25 µM in [2], 7 µM in test [4] and above 25 µM in [6]. For the same molecule, the IC50 against wild type K-Ras was 23.3 µM; with HCT116-G31D, above 25 µM; at K-Ras G12D, 6.1 µM; in the test with Panc10.05-G12D, above 25 µM; in test [5], above 25 µM; in test [7] it was 7 µM. Besides, the figures for the IC50 (in test [9]; with Panc1-G12D) were 9 µM and 24 µM, respectively.
Regarding `CCn1nc(C)c(C(=O)Nc2nc(-c3ccc4c(c3)CCC(=O)N4)cs2)c1C` [Compound 41, 1-ethyl-3,5-dimethyl-N-(4-(2-oxo-1,2,3,4-tetrahydroquinolin-6-yl)thiazol-2-yl)-1H-pyrazole-4-carboxamide], the EC50 was 2 µM in test [1], above 25 µM in test [2], 3 µM in test [4] and 22 µM in test [6]. Further, the IC50 is 7.5 µM at wild type K-Ras; above 25 µM in the test on HCT116-G31D; 4.3 µM against K-Ras G12D; 19 µM with Panc10.05-G12D; 18 µM in test [5]; 6 µM in [7]. The IC50 in test [9] stood at 7 µM; with Panc1-G12D it was 12 µM.
Turning to `Cn1ncc(C(=O)Nc2nc(-c3ccc4c(c3)CCC(=O)N4)cs2)c1C1CC1` [Compound 35, 5-cyclopropyl-1-methyl-N-(4-(2-oxo-1,2,3,4-tetrahydroquinolin-6-yl)thiazol-2-yl)-1H-pyrazole-4-carboxamide], the EC50 in test [1] is above 25 µM; in test [2] it was above 25 µM; in [4] it was above 25 µM; in [6], 11 µM. Moreover, the IC50 with HCT116-G31D is above 25 µM; against K-Ras G12D, above 25 µM; with Panc10.05-G12D, above 25 µM; in [5] it was 19 µM; in test [7], 7 µM; in test [9], 6 µM. Further, the IC50 with Panc1-G12D was above 25 µM.
On to `Cc1nc(C2CCOC2O)sc1C(=O)Nc1nc(-c2ccc3c(c2)CCC(=O)N3Cc2cccnc2)cs1` (stereo not shown) [Compound 71, 2-(2-hydroxytetrahydrofuran-3-yl)-4-methyl-N-(4-(2-oxo-1-(pyridin-3-ylmethyl)-1,2,3,4-tetrahydroquinolin-6-yl)thiazol-2-yl)thiazole-5-carboxamide], for which the EC50 in [1] is 25 µM; in test [2], 27 µM; in [3] it was above 25 µM; in test [4], 18 µM; in test [6], 16 µM; in test [8] it was 16 µM. Moreover, the IC50 with HCT116-G31D amounted to 9 µM; in the test with Panc10.05-G12D, 6 µM; in [5] it was 6 µM; in test [7], 7 µM; with Panc1-G12D it was 22 µM.
Consider `Cc1nn(C(C)C)cc1C(=O)Nc1nc(-c2ccc3c(c2)CCC(=O)N3)cs1` [Compound 36, 1-isopropyl-3-methyl-N-(4-(2-oxo-1,2,3,4-tetrahydroquinolin-6-yl)thiazol-2-yl)-1N-pyrazole-4-carboxamide], for which the EC50 in [1] was 2 µM; in [2], above 25 µM; in test [4] it was 15 µM; in test [6], 20 µM. Further, the IC50 against wild type K-Ras was 18.3 µM; in the test with HCT116-G31D, above 25 µM; against K-Ras G12D, 7 µM; with Panc10.05-G12D it was 3 µM; in test [5], 7 µM; in [7], above 25 µM. For the same molecule, the IC50 in [9] was above 25 µM; in the test on Panc1-G12D it was 14 µM.
Turning to `Cn1cc(C(=O)Nc2nc(-c3ccc4c(c3)CCC(=O)N4)cs2)c(C(F)(F)F)n1` [Compound 30, 1-methyl-N-(4-(2-oxo-1,2,3,4-tetrahydroquinolin-6-yl)thiazol-2-yl)-3-(trifluoromethyl)-1H-pyrazole-4-carboxamide], the EC50 in test [1] is 8 µM; in [2], above 25 µM; in [4], above 25 µM; in [6], 16 µM. Besides, the IC50 in the test on HCT116-G31D is above 25 µM; against K-Ras G12D, above 25 µM; in the test on Panc10.05-G12D, 23 µM; in test [5], 18 µM; in test [7], above 25 µM; in test [9], above 25 µM. Besides, the IC50 in the test on Panc1-G12D was above 25 µM.
Take `Cc1nc(C)c(C(=O)Nc2nc(-c3ccc4c(c3)CCC(=O)N4CC3CCOC3)cs2)o1` (stereo not shown) [Compound 67, 2,4-dimethyl-N-(4-(2-oxo-1-((tetrahydrofuran-3-yl)methyl)-1,2,3,4-tetrahydroquinolin-6-yl)thiazol-2-yl)oxazole-5-carboxamide]: the EC50 in [1] worked out at 3 µM; in [2], 10 µM; in [3] it was 23 µM; in test [6], 4 µM; in [8] it was 6 µM. Moreover, the IC50 was above 25 µM on wild type K-Ras; 2 µM in the test on HCT116-G31D; 8 µM against K-Ras G12D; 2 µM in the test with Panc10.05-G12D; 2 µM in [5]; 3 µM in test [7]. Further, in the test on Panc1-G12D, the IC50 turned out to be 4 µM.
